The test system of one assay is Sebocytes. In words: cells. The assay is classed as cell-based, human. As to conditions: 2,2′-dihydroxychalcone 0.3 μM; Green Tea Extract 0.0 μg/mL.
`O=C(/C=C/c1ccccc1O)c1ccccc1O` [2,2′-dihydroxy-chalcone]: the “% Cholera Toxin Reduction” value is listed as 14.3%.

The assay is the same for the next values; noted with them: 2,2′-dihydroxychalcone 1.0 μM; Green Tea Extract 0.0 μg/mL.
For `O=C(/C=C/c1ccccc1O)c1ccccc1O` [2,2′-dihydroxy-chalcone], the “% Cholera Toxin Reduction” value came to 38.2%.

Still in this assay, the particulars now being: 2,2′-dihydroxychalcone 3.0 μM; Green Tea Extract 0.0 μg/mL.
Take `O=C(/C=C/c1ccccc1O)c1ccccc1O` [2,2′-dihydroxy-chalcone]: the “% Cholera Toxin Reduction” value was 50.8%.

Still in this assay, the particulars now being: Homo sapiens, read-out: % Reduction in Lipid Synthesis in Sebocytes [3 uM].
As for `COc1ccc(C(=O)/C=C/c2ccc(OC)c(OC)c2)c(O)c1`, the inhibition at 3 µM came out at 12.4%.
Same read-out and setting: the figure for `O=C(/C=C/c1ccc(O)c(O)c1)c1ccc(O)cc1O` is 12.8%; for `COc1cc(O)c(C(=O)/C=C/c2ccc(OC)c(OC)c2)c(O)c1` it is 20.5%; for `COc1cc(O)c(C(=O)/C=C/c2ccc(OC)c(O)c2)c(OC)c1` it is 25.6%.
Consider `O=C1c2ccc(O)cc2OC1Cc1ccc(O)c(O)c1` (centres unmarked), for which the inhibition at 3 µM worked out at 26.9%.
The same measure, in the same setting: the figure for `COc1ccc(/C=C/C(=O)c2c(O)cc(OC)cc2OC)cc1` is 28.4%; for `COc1ccc(O)c(C(=O)/C=C/c2cccc(OC)c2OC)c1` it is 28.7%; for `O=C(/C=C/c1ccccc1O)c1ccccc1O` [drawing 18] it is 47.3%.

The assay is the same for the next values; noted with them: compound at 3 uM; sebocytes.
Take `O=C(/C=C/c1ccc(O)c(O)c1)c1c(O)cc(O)cc1O`: the “% Reduction in Lipid Synthesis in Sebocytes [3 uM]” value (“% Reduction in Lipid Synthesis” for short) is “Not Active”.
Same read-out and setting: the value for `COc1cc(OC)c(C(=O)/C=C/c2ccc(OC)c(OC)c2)c(OC)c1` was “Not Active”.
Take `COc1cc(OC)c(C(=O)/C=C/c2ccc(O)cc2)c(OC)c1`: the “% Reduction in Lipid Synthesis” value was “Not Active”.
Consider `COc1ccc(C(=O)/C=C/c2cc(OC)c(OC)c(OC)c2)c(O)c1`, for which the “% Reduction in Lipid Synthesis” value is on record as “Not Active”.
Still for that read-out and setting: the entry for `COc1cc(OC)c(C(=O)/C=C/c2ccc(O)cc2OC)c(OC)c1` is “Not Active”; for `COc1cc(OC)c(C(=O)/C=C/c2ccc(OC)c(O)c2)c(OC)c1` it is “Not Active”; for `COc1cc(/C=C/C(=O)c2ccc(O)cc2C)cc(OC)c1OC` it is “Not Active”.
On the same count and under the same terms, the entry for `COc1cccc(/C=C/C(=O)c2ccc(O)cc2O)c1OC` is “Not Active”; for `COc1ccc(/C=C/C(=O)c2ccc(O)cc2O)cc1OC` it is “Not Active”; for `COc1cc(/C=C/C(=O)c2ccc(O)cc2O)ccc1O` it is “Not Active”.
The same measure, in the same setting: the value for `COc1ccc(/C=C/C(=O)c2c(O)cc(OC)c(OC)c2OC)c(OC)c1` was “Not Active”; that for `COc1cc(O)c(C(=O)/C=C/c2ccc(O)c(OC)c2)c(OC)c1` was “Not Active”; that for `COc1ccc(C(=O)/C=C/c2cccc(OC)c2OC)c(O)c1` was “Not Active”.
For the molecule `O=C(/C=C/c1ccc(O)c(O)c1)c1ccc(OC2O[C@H](CO)C(O)[C@H](O)C2O)c(O)c1O` (some centres unmarked), the “% Reduction in Lipid Synthesis” value is reported as “Not Active”.
Same read-out and setting: the entry for `COc1ccc(C(=O)/C=C/c2ccc(OC)cc2OC)c(O)c1` is “Not Active”.
Take `COc1c(/C=C/C(=O)c2ccc(O)cc2)ccc(O)c1O`: the “% Reduction in Lipid Synthesis” value is “Not Active”.
`COc1ccc(/C=C/C(=O)c2cc(OC)ccc2O)c(OC)c1`: the “% Reduction in Lipid Synthesis” value is given as “Not Active”.
Still for that read-out and setting: the value for `COc1ccc(O)c(C(=O)/C=C/c2ccc(OC)c(OC)c2)c1` was “Not Active”.

The record behind these values is US7781410B2 (priority 2006, dated 2010).
